Results as given in patent US8084592B2, “Multivalent entrain-and-amplify immunotherapeutics for carcinoma” (MannKind Corporation, priority 2005, dated 2011).
“Also recorded” adds a separate entry of the source. Non-standard residues stand in square brackets, D forms with d. No end group written: not given here. Nle = CCCC[C@H](N)C(=O)O; Nva = CCC[C@H](N)C(=O)O

Assays:
[1] = system: T cell line specific for the native epitope; assay: Cross-reactivity of PSMA288-297 analogs: IFN-gamma secretion from T cell line; format: cell-based, HHD transgenic mice; conditions: stimulating with 10 μg/ml of analog (approximately 10 μM)
Source text: A methodology was devised to allow rapid and rational screening of peptide analogs in a fashion coherent with proposed methods of use and modeling the overall immunologic properties (Kon and Koff relative to MHC interaction and TCR binding properties in an integrated fashion). In some instances, the method included generating T cell lines against a natural (non-mutated) epitope (SSX-241-49), and using an immunization strategy potent enough to generate a useful response in transgenic mice carrying human MHC (such as the A2 allele). Peptide analogs were interrogated ex vivo in the presence of competent APCs and the functional impact of T cells specific for natural (non-mutated) epitopes measured. The evaluation was done at various concentrations of analog, because the expected effect was biphasic in the case of cross reactive peptides (activating at limited concentrations and inhibiting at higher concentrations, due to antigen-induced cell death, AICD). Measurement of the following three parameters were used to define basic and useful characteristics of peptide analogs: • 1. […]
(§1) The method used for the generation of T cell lines was the following: HHD transgenic mice carrying an A2 human allele (Pascolo et al., J. Exp Med. 185(12):2043-51, 1997, which is hereby incorporated herein by reference in its entirety) were immunized with 50 μg of SSX-2 natural epitope (41-49) admixed with 25 μg of plpC at day 0, 4, 14 and 18 by bilateral administration into the inguinal lymph nodes. […] The supernatant was harvested and the concentration of IFN-gamma assessed by standard methods such as ELISA.
Using the procedures described in application Ser. Nos. 11/455,278 and 11/454,633, each of which is hereby incorporated by reference in its entirety, the binding characteristics of PSMA288-297 and analogs were assessed in comparison to each other see (see FIG. 12). […] Cross reactivity with the native epitope was assessed by using the analog peptides to stimulate IFN-gamma secretion from a T cell line specific for the native epitope, essentially as described in Example 12. […]

[2] = system: T cells that recognized native PSMA288-297 peptide; assay: Cross-reactive immunogenicity of PSMA288-297 analogs, IFN-γ ELISPOT; format: in vivo, HHD transgenic mice; conditions: 25 μg peptide + 12.5 μg pI:C per lymph node, day 0, 3, 14, 17
Description: Groups of HHD transgenic mice (n=8) were immunized with peptide (natural epitope PSMA288-297, or analogs bearing substitutions at primary or secondary anchor residues) by direct inoculation into the inguinal lymph nodes, with 25 μg in […]+12.5 μg of pI:C to each lymph node at day 0, 3, 14 and 17.
Mice were sacrificed at 10 days after the last boost, and splenocytes prepared and assessed for IFN-γ production by ELISPOT analysis. Various numbers of splenocytes/well were stimulated with 10 μg/ml of native peptide in ELISPOT plates coated with anti-IFN-γ antibody. At 48 hours after incubation, the assay was developed and the frequency of cytokine-producing T cells that recognized native PSMA288-297 peptide was automatically counted. The data is represented in FIG. 15 as the number of spot forming colonies/well (mean of triplicates+SD).

[3] = target: MHC class I (A2.1) (Homo sapiens, UniProt P04439, D140Y/D185E/D98H/E176V/E277Q/G131W/G231S/I119V/I121R/I166T/I218V/L300P/L318F/N151K/N90K/P208A/P217A/Q86G/Q94H/R138H/R169H/T345S); assay: Binding characteristics (affinity, stability) of PSMA288-297 and analogs
[4] = target: HLA-A*0201 (Homo sapiens, UniProt P04439, D140Y/D185E/D98H/E176V/E277Q/G131W/G231S/I119V/I121R/I166T/I218V/L300P/L318F/N151K/N90K/P208A/P217A/Q86G/Q94H/R138H/R169H/T345S); assay: HLA-A*0201 binding characteristics of PRAME425-433 and analogs
Description: The positive control for binding was melan-A26-35 A27L. […] Cross reactivity with the native epitope was assessed by using the analog peptides to stimulate IFN-gamma secretion from a T cell line specific for the native epitope, essentially as described in Example 12. The data shown in FIGS. 16-18 were generated by stimulating with analog peptide at approximately 0.3 μM. […] In some cases, the reported values are the average of two determinations.

[5] = system: T cell line specific for the native epitope; assay: Cross-reactivity of PRAME425-433 analogs: IFN-gamma secretion from T cell line; format: cell-based, HHD transgenic mice; conditions: analog peptide at approximately 0.3 μM, normalized to native peptide
Source text: A methodology was devised to allow rapid and rational screening of peptide analogs in a fashion coherent with proposed methods of use and modeling the overall immunologic properties (Kon and Koff relative to MHC interaction and TCR binding properties in an integrated fashion). In some instances, the method included generating T cell lines against a natural (non-mutated) epitope (SSX-241-49), and using an immunization strategy potent enough to generate a useful response in transgenic mice carrying human MHC (such as the A2 allele). Peptide analogs were interrogated ex vivo in the presence of competent APCs and the functional impact of T cells specific for natural (non-mutated) epitopes measured. […]
as §1, with “ELISA. […]” for “ELISA.”

[6] = system: splenocytes responding to the PRAME425-433 peptide; assay: Cross-reactive immunogenicity of PRAME analog, IFN-γ ELISA of splenocytes; format: in vivo, HHD transgenic mice; conditions: pCTLR2 plasmid prime, peptide boost 2.5 μg day 28 and 31, versus native peptide boost
Description: This was followed by two peptide boosts (2.5 μg) at day 28 and 31, of native peptide or the PRAME epitope analog L426Nva L433Nle.
Mice were sacrificed at 10 days after the last boost, and splenocytes prepared and assessed for IFN-γ production after in vitro stimulation at 0.5×10^6 cells/well, with 10 μg/ml of native peptide.

Substance | IFN-gamma production (cross-reactivity) compared to native peptide [1] | immunogenicity against the native epitope [2] | IFN-γ production (cross-reactivity) compared to native peptide [5] | also measured
GLPSIPVHPV [PSMA288-297 I297V] | increased the amount of IFN-gamma produced | increased priming of immune responses against the native epitope |  | 
PSMA288-297 P1 Abu: PSMA288-297 analog, Abu at P1 | marginally similar cross-reactivity | slightly higher (but significant) activity than the native peptide |  | 
GLPSIPVHPI (homo sapien) [PSMA288-297, reference compound] |  | poorly immunogenic; also recorded: poor immunogenicity |  | binding characteristics [3]: generally superior binding characteristics
PSMA288-297 PO Nva: PSMA288-297 analog, Nva at PO | increased the amount of IFN-gamma produced | slightly higher (but significant) activity than the native peptide |  | stability of binding (half-time of dissociation) compared to native peptide [3]: improved the stability of binding
SNvaLQHLIGNle (S[Nva]LQHLIG[Nle]) [L426Nva L433Nle] |  |  | significant level of cross-reactivity | binding characteristics (affinity and stability) [4]: similar, somewhat improved binding characteristics; IFN-γ production in response to the PRAME425-433 peptide (ELISA) [6]: significant enhancement of IFN-γ production
PRAME425-433 C-terminal amide: PRAME425-433 with carboxy-terminus modified by the addition of an amide group (SLLQHLIGL-NH2) |  |  | within twofold of the native peptide | 
